The source of these data is paper PMC10598797, “Molecular View on the iRGD Peptide Binding Mechanism: Implications for Integrin Activity and Selectivity Profiles” (Journal of Chemical Information and Modeling, 2023).

The IC50 is the point on the concentration scale where inhibition reaches its midpoint. Read a high IC50 as weaker potency.

The test system of data set [1] is neuropilin-1 (NRP-1). The conditions noted are these: cited from earlier work. An excerpt: (§1) The striking iRGD’s tumor-homing activity is linked to the marked overexpression of RGD integrins on the cancer cell membrane.[38]−[40] […] This can be correlated to the peculiar multistage internalization process of iRGD, where the binding to integrins represents only the first step.[16]

Data set [2] has as its target T1, αvβ5 (Homo sapiens, UniProt P06756+P18084).
T1 construct: purchased R&D Systems, Inc
Description: Solid-phase integrin binding assay, αvβ5.
Description: (§3) Purified αvβ3 (Sino Biological Europe GmbH) and αvβ5 (R&D Systems, Inc.) were diluted to 0.5 μg/mL, while αvβ6 (Sino Biological Europe GmbH) was diluted to 1 μg/mL in coating buffer containing Tris–HCl (20 mmol/L; pH 7.4), NaCl (150 mmol/L), MnCl2 (1 mmol/L), CaCl2 (2 mmol/L), and MgCl2 (1 mmol/L). An aliquot of diluted receptors (100 μL per well) was added to 96-well microtiter plates (Nunc MW96F Maxisorp Straight) and incubated overnight at 4 °C. The plates were then incubated with blocking solution (coating buffer plus 1% bovine serum albumin) for an additional 2 h at room temperature to block nonspecific binding, followed by 3 h incubation at room temperature with various concentrations of test compounds in the presence of, respectively, vitronectin (1 μg/mL, Sigma-Aldrich) for αvβ3 and αvβ5 and fibronectin for αvβ6 (1 μg/mL, Sigma-Aldrich) biotinylated using the EZ-Link Sulfo-NHS-Biotinylation kit (Thermo Fisher). […] Absorbance at 415 nm was read with a BMG Labtech Fluostar Optima microplate reader. All of the experiments were performed in triplicates, and the data collected were analyzed using the GraphPad 5.0 Software Package (GraphPad Prism, San Diego, CA).

In data set [3] the test system is metastatic pancreatic ductal adenocarcinoma (PDAC). To be noted: phase I trial, combination with nab-paclitaxel and gemcitabine; cited from earlier work. The source says:
(§2) Nowadays, the clinical efficacy of chemotherapeutic drugs is frequently hampered either by a lack of selectivity over healthy cells or by poor pharmacokinetic properties, including cancer homing and penetration. This is especially true for solid tumors, which are frequently characterized by the upregulation of junction proteins such as desmoglein 2 (DSG2) and E-cadherin, and extracellular matrix (ECM) components (i.e., fibrinogen and collagen), which form a physical barrier against the intracellular transport of exogenous molecules.[1] For these reasons, anticancer compounds often need to be a ...

Data set [4] relates to tumor. The conditions noted are these: cited from earlier work.
From the text: as §2

Data set [5] deals with T2, αvβ6 (Homo sapiens, UniProt P06756+P18564).
T2 construct: purchased Sino Biological Europe GmbH
T2 sequence (P06756 31-992 limits assumed): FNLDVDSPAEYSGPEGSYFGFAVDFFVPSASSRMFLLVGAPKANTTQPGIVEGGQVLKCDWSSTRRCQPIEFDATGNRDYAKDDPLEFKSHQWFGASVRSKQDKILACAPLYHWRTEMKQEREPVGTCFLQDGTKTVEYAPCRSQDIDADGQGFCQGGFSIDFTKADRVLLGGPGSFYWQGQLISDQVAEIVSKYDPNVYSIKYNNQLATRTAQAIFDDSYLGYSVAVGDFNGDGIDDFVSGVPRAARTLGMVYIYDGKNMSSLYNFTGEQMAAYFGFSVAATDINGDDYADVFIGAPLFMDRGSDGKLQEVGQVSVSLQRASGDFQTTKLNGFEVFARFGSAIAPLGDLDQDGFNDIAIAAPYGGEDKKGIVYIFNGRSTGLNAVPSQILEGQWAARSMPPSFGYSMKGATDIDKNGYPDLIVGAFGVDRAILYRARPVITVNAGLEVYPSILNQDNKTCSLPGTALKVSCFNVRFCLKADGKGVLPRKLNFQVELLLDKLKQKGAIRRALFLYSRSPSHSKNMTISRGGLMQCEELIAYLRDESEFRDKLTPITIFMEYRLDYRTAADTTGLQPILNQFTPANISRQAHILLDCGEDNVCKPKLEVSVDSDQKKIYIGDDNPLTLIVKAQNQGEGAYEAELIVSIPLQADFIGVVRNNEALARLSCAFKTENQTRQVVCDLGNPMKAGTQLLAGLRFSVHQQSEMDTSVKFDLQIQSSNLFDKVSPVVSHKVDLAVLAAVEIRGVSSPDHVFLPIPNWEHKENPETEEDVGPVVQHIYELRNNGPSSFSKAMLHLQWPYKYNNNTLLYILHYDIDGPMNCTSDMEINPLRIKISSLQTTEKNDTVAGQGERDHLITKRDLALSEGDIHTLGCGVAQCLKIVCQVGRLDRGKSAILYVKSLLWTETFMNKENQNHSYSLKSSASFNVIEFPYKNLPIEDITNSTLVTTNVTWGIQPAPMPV
T2 sequence (P18564 22-707 limits assumed): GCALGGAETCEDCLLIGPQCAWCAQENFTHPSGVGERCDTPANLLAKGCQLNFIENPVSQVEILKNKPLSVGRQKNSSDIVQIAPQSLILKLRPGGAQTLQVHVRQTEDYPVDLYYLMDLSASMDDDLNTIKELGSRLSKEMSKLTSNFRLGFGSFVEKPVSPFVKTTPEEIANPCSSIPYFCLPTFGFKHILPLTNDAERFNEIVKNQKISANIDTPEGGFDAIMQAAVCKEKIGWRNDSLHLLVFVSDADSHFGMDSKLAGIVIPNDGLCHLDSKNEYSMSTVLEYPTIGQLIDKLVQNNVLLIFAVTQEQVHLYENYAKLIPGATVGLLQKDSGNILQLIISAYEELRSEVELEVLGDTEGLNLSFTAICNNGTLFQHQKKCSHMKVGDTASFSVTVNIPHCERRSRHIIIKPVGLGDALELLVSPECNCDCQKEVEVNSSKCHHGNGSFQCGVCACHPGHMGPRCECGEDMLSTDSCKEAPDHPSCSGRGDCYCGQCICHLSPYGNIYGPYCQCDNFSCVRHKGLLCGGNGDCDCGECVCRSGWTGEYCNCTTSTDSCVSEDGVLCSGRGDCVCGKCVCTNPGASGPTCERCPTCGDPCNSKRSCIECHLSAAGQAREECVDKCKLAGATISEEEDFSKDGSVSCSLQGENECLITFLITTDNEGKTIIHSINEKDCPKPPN
Briefly: Solid-phase integrin binding assay, αvβ6. To be noted: αvβ6 1 μg/mL coated overnight at 4 °C; biotinylated fibronectin 1 μg/mL; 3 h incubation at room temperature; pH 7.4; absorbance 415 nm; mean of three independent experiments ± SEM.
Description: as §3

For data set [6] the following is noted: cited from earlier work.
From the text: as §1

Data set [7] relates to tumor migration. The conditions noted are these: in vitro, CendR- and NRP-1-dependent; cited from earlier work.
From the text: as §1

T1 sequence (P06756 31-992 limits assumed): as the sequence (P06756 31-992 limits assumed) above
T1 sequence (P18084 24-719 limits assumed): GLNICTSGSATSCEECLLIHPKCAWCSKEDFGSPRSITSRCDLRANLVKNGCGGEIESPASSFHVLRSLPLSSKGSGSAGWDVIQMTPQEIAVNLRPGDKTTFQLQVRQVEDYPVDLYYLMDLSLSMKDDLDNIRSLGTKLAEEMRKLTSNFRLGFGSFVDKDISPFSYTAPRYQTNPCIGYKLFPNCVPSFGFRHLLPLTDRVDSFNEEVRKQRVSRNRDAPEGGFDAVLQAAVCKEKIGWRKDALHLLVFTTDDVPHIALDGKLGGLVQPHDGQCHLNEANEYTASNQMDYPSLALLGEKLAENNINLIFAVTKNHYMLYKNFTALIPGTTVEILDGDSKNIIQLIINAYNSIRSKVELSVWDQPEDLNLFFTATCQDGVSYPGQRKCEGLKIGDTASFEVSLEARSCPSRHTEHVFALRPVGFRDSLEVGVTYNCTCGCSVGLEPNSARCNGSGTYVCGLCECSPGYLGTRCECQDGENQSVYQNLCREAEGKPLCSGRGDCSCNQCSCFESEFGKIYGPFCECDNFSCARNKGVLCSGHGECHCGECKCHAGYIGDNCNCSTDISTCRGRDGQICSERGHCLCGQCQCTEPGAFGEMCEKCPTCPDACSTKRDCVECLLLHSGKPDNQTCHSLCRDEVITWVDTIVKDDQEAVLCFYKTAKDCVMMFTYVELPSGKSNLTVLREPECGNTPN

Regarding CRGDK [CendR motif], the “internalization upon binding to NRP-1” value in data set [1] was “triggers the internalization of the peptide–receptor complex”.
With `N=C(N)NCCC[C@@H]1NC(=O)[C@@H](N)CSSC[C@@H](C(=O)O)NC(=O)[C@H](CC(=O)O)NC(=O)[C@@H]2CCCN2C(=O)CNC(=O)[C@H](CCCCN)NC(=O)[C@H](CC(=O)O)NC(=O)CNC1=O` [1 (iRGD)], the “potency toward αvβ5 (in words)” value in data set [2] is recorded as “mid-low nanomolar potency”. In addition, the progression-free survival result in data set [3] was “longer progression-free survival”. For the same compound, the “tumor endocytosis of cytotoxic agents” value in data set [4] was “enhanced by the simple coadministration”. The IC50 in data set [5] is 191 ± 44 nM. Further, in data set [6], the “site of proteolytical cleavage” value was “proteolytical cleavage at the Lys^5–Gly^6 bond”. The “effect on tumor migration and chemorepulsion” value in data set [7] is “can inhibit tumor migration and induce chemorepulsion”.
